In brackets after ≈: the same amount, converted by molar mass. Bounds are passed on as bounds.

T1 sequence (Q07820 whole entry, the tested form may be a part): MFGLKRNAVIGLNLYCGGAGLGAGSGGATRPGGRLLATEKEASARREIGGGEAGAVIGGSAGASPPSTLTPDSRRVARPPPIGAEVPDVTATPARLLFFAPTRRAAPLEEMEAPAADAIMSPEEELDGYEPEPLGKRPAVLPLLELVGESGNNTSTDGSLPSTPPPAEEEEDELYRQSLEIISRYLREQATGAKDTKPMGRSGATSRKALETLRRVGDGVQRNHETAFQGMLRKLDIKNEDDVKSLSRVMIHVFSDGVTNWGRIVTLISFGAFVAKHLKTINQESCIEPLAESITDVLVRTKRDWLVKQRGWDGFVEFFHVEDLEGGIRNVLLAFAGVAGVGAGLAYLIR

Tested on in one data set: not listed separately
Put plainly: Stability in human liver microsomes assessed as parent compound remaining after 30 mins. It counts as ADME, Microsome. The following applies: read-out: Stability. Background: Liver microsomes are a subcellular fraction often used to study metabolism.
`Cc1cc(C(=O)N[C@H](Cc2ccccc2)C(=O)NS(=O)(=O)c2ccccc2)sc1S(=O)(=O)Nc1cc(C(F)(F)F)ccc1Cl`: the remaining at 0.5 h was 74%. On to `Cc1cc(C(=O)N[C@H](Cc2c[nH]c3ccccc23)C(=O)O)sc1S(=O)(=O)Nc1cc(C(F)(F)F)ccc1Cl`, for which the remaining at 0.5 h was 98%. Take `Cc1cc(C(=O)N[C@H](Cc2ccccc2)C(=O)NS(C)(=O)=O)sc1S(=O)(=O)Nc1cc(C(F)(F)F)ccc1Cl`: the remaining at 0.5 h came out at 99%. Same read-out and setting: the same measure for `Cc1cc(C(=O)N[C@H](Cc2ccccc2)C(=O)O)sc1S(=O)(=O)Nc1cc(C(F)(F)F)ccc1Cl`: 66%.

Another data set concerns the target T1, Induced myeloid leukemia cell differentiation protein Mcl-1 (Homo sapiens, UniProt Q07820). Put plainly: Inhibition of […]-labelled BID binding to human MCl-1 (171 to 327 residues) expressed in Escherichia coli BL21 (DE3) by fluorescence polarization assay.
Settings: not given
`O=S(=O)(Nc1ccc(Cl)cc1Cl)c1cc(Cl)ccc1Cl`: the IC50 was 21000 nM. With `Cn1ccnc1S(=O)(=O)Nc1cc(C(F)(F)F)ccc1Cl`, the IC50 was determined as 17000 nM. Compound `Cc1cc(C(=O)N[C@H](Cc2ccccc2)C(=O)NCCO)sc1S(=O)(=O)Nc1cc(C(F)(F)F)ccc1Cl` came in with an IC50 of 112 nM. `O=S(=O)(Nc1cc(Cl)c(Cl)cc1Cl)c1cc(Cl)ccc1Cl` showed an IC50 of 9000 nM. `O=S(=O)(Nc1ccccc1Cl)c1cc(Cl)ccc1Cl` gave an IC50 of over 25000 nM.

Take `Cc1cc(C(=O)NC(Cc2ccccc2)Cc2ccccc2)sc1S(=O)(=O)Nc1cc(C(F)(F)F)ccc1Cl`: the IC50 is 7100 nM.

In turn, `Cc1ccc(F)cc1S(=O)(=O)Nc1cc(C(F)(F)F)ccc1Cl` came in with an IC50 of 5500 nM. In the case of `Cc1cc(C(=O)N[C@@H](C(=O)O)C(C)C)sc1S(=O)(=O)Nc1cc(C(F)(F)F)ccc1Cl`, the IC50 was found to be 660 nM. This IC50 lies about 8.3-fold lower than the previous one.

`Cc1cc(C(=O)N[C@H](Cc2ccccc2)C(=O)NS(=O)(=O)c2ccccc2)sc1S(=O)(=O)Nc1cc(C(F)(F)F)ccc1Cl`: the IC50 is 53 nM. This IC50 is about 12-fold lower than that of the compound before.

For `Cc1cc2c(cc1S(=O)(=O)Nc1cc(C(F)(F)F)ccc1Cl)OCC(=O)N2`, the IC50 was 1800 nM. For `Cc1cc(C(=O)NC(Cc2ccccc2)c2ccccc2)sc1S(=O)(=O)Nc1cc(C(F)(F)F)ccc1Cl` (stereo unspecified), the IC50 was found to be 7100 nM. For `Cc1ccc([N+](=O)[O-])cc1NS(=O)(=O)c1cc(Cl)ccc1Cl`, the IC50 was determined as 20000 nM. `Cc1cc(C(=O)NCCC(=O)O)sc1S(=O)(=O)Nc1cc(C(F)(F)F)ccc1Cl` returned an IC50 of 3500 nM. Still for that read-out and setting: the same measure for `Cc1cc(C(=O)NS(C)(=O)=O)sc1S(=O)(=O)Nc1cc(C(F)(F)F)ccc1Cl`: 1070 nM. Compound `Cc1cc(C(=O)N[C@H](Cc2ccccc2)C(N)=O)sc1S(=O)(=O)Nc1cc(C(F)(F)F)ccc1Cl` registered an IC50 of 153 nM. As for `Cc1cc(C(=O)NC(Cc2ccccc2)C(=O)O)sc1S(=O)(=O)Nc1cc(C(F)(F)F)ccc1Cl` (stereo unspecified), the IC50 stood at 300 nM.

Regarding `O=S(=O)(Nc1cccc(C(F)(F)F)c1)c1cc(Cl)ccc1Cl`, the IC50 is over 25000 nM. Still for that read-out and setting: the same measure for `O=S(=O)(Nc1cc(C(F)(F)F)ccc1Cl)c1c(Cl)cccc1Cl`: 7300 nM; for `Cc1cc(C(=O)NCCc2ccc(Oc3ccccc3)cc2)sc1S(=O)(=O)Nc1cc(C(F)(F)F)ccc1Cl`: 7000 nM; for `O=S(=O)(Nc1ccc2ccccc2c1)c1cc(Cl)ccc1Cl`: over 25000 nM. `O=C(Nn1cnnc1)c1cccc(S(=O)(=O)Nc2cc(C(F)(F)F)ccc2Cl)c1` came in with an IC50 of 19000 nM. This counts as double-digit micromolar. `Cc1cc(C(=O)NC2CCc3ccccc3C2)sc1S(=O)(=O)Nc1cc(C(F)(F)F)ccc1Cl` (stereo unspecified): the IC50 is 4200 nM. Compound `Cc1cc(C(=O)N[C@H](C)C(=O)O)sc1S(=O)(=O)Nc1cc(C(F)(F)F)ccc1Cl` gave an IC50 of 1500 nM. This IC50 lies about 2.8-fold lower than the previous one.

The compound `O=S(=O)(Nc1cc(C(F)(F)F)ccc1Cl)c1ccccc1Cl` gave an IC50 of 13000 nM. Turning to `Cc1cc(C(=O)NCc2nnn[nH]2)sc1S(=O)(=O)Nc1cc(C(F)(F)F)ccc1Cl`, the IC50 came to 420 nM. Compared with the last compound, the IC50 is about 31-fold lower.

The compound `Cc1cc(C(=O)N(CCc2ccccc2)CC(=O)O)sc1S(=O)(=O)Nc1cc(C(F)(F)F)ccc1Cl` came in with an IC50 of 690 nM. Compound `Cc1nn(C)c(Cl)c1S(=O)(=O)Nc1cc(C(F)(F)F)ccc1Cl` yielded an IC50 of 23000 nM. `Cc1cc(F)ccc1S(=O)(=O)Nc1cc(C(F)(F)F)ccc1Cl`: the IC50 was 10000 nM. Compound `Cc1cc(C(=O)N[C@H](CCc2ccccc2)C(=O)O)sc1S(=O)(=O)Nc1cc(C(F)(F)F)ccc1Cl` came in with a concentration for half-maximal inhibition (IC50) of 820 nM.

`O=S(=O)(Nc1cc(C(F)(F)F)ccc1Cl)c1cc(Cl)ccc1Cl` gave an IC50 of 149 to 3100 nM. `COC(=O)c1cc(C)c(S(=O)(=O)Nc2cc(C(F)(F)F)ccc2Cl)s1` had an IC50 of 1900 nM. Compound `Cc1cc(C(=O)N[C@H](Cc2ccccc2)c2nnn[nH]2)sc1S(=O)(=O)Nc1cc(C(F)(F)F)ccc1Cl` came in with an IC50 of 153 nM. This IC50 lies about 12-fold lower than the previous one.

As for `Cc1ccc(S(=O)(=O)Nc2cc(C(F)(F)F)ccc2Cl)c(C)c1`, the IC50 worked out at 12000 nM. In turn, `Cc1cc(C(=O)NCCc2ccccc2)sc1S(=O)(=O)Nc1cc(C(F)(F)F)ccc1Cl` registered an IC50 of 810 nM. This IC50 is about 15-fold lower than that of the compound before.

In the case of `CN(C)c1ccc(S(=O)(=O)N(C)C)cc1NS(=O)(=O)c1cc(Cl)ccc1Cl`, the IC50 came out at 18000 nM. Compound `CC(C)c1cccc(NS(=O)(=O)c2cc(Cl)ccc2Cl)c1` came in with a concentration for half-maximal inhibition (IC50) of over 25000 nM. Same read-out and setting: the same measure for `COC(=O)[C@@H](Cc1ccccc1)NC(=O)c1cc(C)c(S(=O)(=O)Nc2cc(C(F)(F)F)ccc2Cl)s1`: 145 nM; for `Cc1cc(C(=O)NCC(=O)O)sc1S(=O)(=O)Nc1cc(C(F)(F)F)ccc1Cl`: 470 nM. Take `Cc1cc(C(=O)N2CCCC[C@H]2C(=O)O)sc1S(=O)(=O)Nc1cc(C(F)(F)F)ccc1Cl`: the IC50 turned out to be 1000 nM. For the compound `Cc1cc(C(=O)N[C@H](Cc2ccc(-c3ccccc3)cc2)C(=O)O)sc1S(=O)(=O)Nc1cc(C(F)(F)F)ccc1Cl`, the IC50 was 2800 nM. This IC50 is about 2.8-fold higher than that of the compound before.

The compound `Cc1cc(C(=O)NC2(C(=O)O)CC2)sc1S(=O)(=O)Nc1cc(C(F)(F)F)ccc1Cl` showed an IC50 of 1500 nM. Same read-out and setting: under `Cc1cc(C(=O)NC[C@@H](O)c2ccccc2)sc1S(=O)(=O)Nc1cc(C(F)(F)F)ccc1Cl` stands 149 nM; under `Cc1cc(C(=O)N[C@H](Cc2c[nH]c3ccccc23)C(=O)O)sc1S(=O)(=O)Nc1cc(C(F)(F)F)ccc1Cl`, 210 nM. The same measure, in the same setting: under `Cc1cc(C(=O)N[C@H](COCc2ccccc2)C(=O)O)sc1S(=O)(=O)Nc1cc(C(F)(F)F)ccc1Cl` stands 310 nM; under `Cc1cc(C(=O)N[C@@H](Cc2ccccc2)C(=O)O)sc1S(=O)(=O)Nc1cc(C(F)(F)F)ccc1Cl`, 750 nM; under `O=S(=O)(Nc1ccn[nH]1)c1cc(Cl)ccc1Cl`, over 25000 nM. Turning to `Cc1cc(C(=O)N[C@H](Cc2ccccc2)C(=O)NS(C)(=O)=O)sc1S(=O)(=O)Nc1cc(C(F)(F)F)ccc1Cl`, the IC50 was determined as 73 nM. `Cc1cc(C(=O)N[C@H](Cc2ccccc2)C(=O)O)sc1S(=O)(=O)Nc1cc(C(F)(F)F)ccc1Cl` gave an IC50 of 181 nM. This IC50 lies about 2.5-fold higher than the previous one. Regarding `Cc1cc(C(=O)N[C@H](Cc2c[nH]cn2)C(=O)O)sc1S(=O)(=O)Nc1cc(C(F)(F)F)ccc1Cl`, the IC50 came to 920 nM. Against the preceding compound, the IC50 is about 5.1-fold higher. For the compound `O=S(=O)(Nc1cc(C(F)(F)F)ccc1Cl)c1sc(Cl)cc1Cl`, the IC50 stood at 8600 nM. This IC50 lies about 9.3-fold higher than the previous one. In turn, `Cc1cc(C(=O)N2CCN(C(=O)OC(C)(C)C)C[C@H]2C(=O)O)sc1S(=O)(=O)Nc1cc(C(F)(F)F)ccc1Cl` returned an IC50 of 630 nM. For `O=S(=O)(Nc1cc(Cl)ccc1Cl)c1cc(Cl)ccc1Cl`, the half-inhibitory concentration (IC50) is 11000 nM. Against the preceding compound, the IC50 is about 17-fold higher. As to `Cc1cc(C(=O)NC[C@H](O)c2ccccc2)sc1S(=O)(=O)Nc1cc(C(F)(F)F)ccc1Cl`, the IC50 was determined as 470 nM. Compound `Cc1ccccc1S(=O)(=O)Nc1cc(C(F)(F)F)ccc1Cl` registered a 50% inhibitory concentration (IC50) of 11000 nM. The compound `Cc1cc(C(=O)N[C@H](Cc2cccnc2)C(=O)O)sc1S(=O)(=O)Nc1cc(C(F)(F)F)ccc1Cl` had an IC50 of 380 nM.

Tested on in a further data set: not listed separately
Put plainly: Solubility of the compound. It counts as physicochemical.
Settings: not given
`Cc1cc(C(=O)N[C@H](Cc2c[nH]c3ccccc23)C(=O)O)sc1S(=O)(=O)Nc1cc(C(F)(F)F)ccc1Cl` returned a solubility of 100 µM (≈ 58.6 µg/mL).

On to `Cc1cc(C(=O)N[C@H](Cc2ccccc2)C(=O)O)sc1S(=O)(=O)Nc1cc(C(F)(F)F)ccc1Cl`, for which the solubility turned out to be 100 µM (≈ 54.7 µg/mL).

The target in a further data set is T1, Induced myeloid leukemia cell differentiation protein Mcl-1. The experiment in a line: Binding affinity to biotin-labelled TEV-fused GST-tagged MCl-1 (unknown origin) by surface plasmon resonance analysis.
Settings: not given
Background: SPR reads the build-up and loss of mass on a sensor chip optically.
For the compound `Cc1cc(C(=O)NC[C@@H](O)c2ccccc2)sc1S(=O)(=O)Nc1cc(C(F)(F)F)ccc1Cl`, binding was characterised by a dissociation constant (Kd) of 165 nM.

Tested on in another data set: not listed separately
Put plainly: Stability in mouse liver microsomes assessed as parent compound remaining after 30 mins. It counts as ADME, Microsome. The conditions noted are these: read-out: Stability.
Consider `Cc1cc(C(=O)N[C@H](Cc2ccccc2)C(=O)NS(=O)(=O)c2ccccc2)sc1S(=O)(=O)Nc1cc(C(F)(F)F)ccc1Cl`, for which the remaining at 0.5 h is 81%.

For the compound `Cc1cc(C(=O)N[C@H](Cc2c[nH]c3ccccc23)C(=O)O)sc1S(=O)(=O)Nc1cc(C(F)(F)F)ccc1Cl`, the remaining at 0.5 h came to 94%.

As for `Cc1cc(C(=O)N[C@H](Cc2ccccc2)C(=O)NS(C)(=O)=O)sc1S(=O)(=O)Nc1cc(C(F)(F)F)ccc1Cl`, the remaining at 0.5 h turned out to be 91%.

`Cc1cc(C(=O)N[C@H](Cc2ccccc2)C(=O)O)sc1S(=O)(=O)Nc1cc(C(F)(F)F)ccc1Cl`: the remaining at 0.5 h amounted to 95%.

Usually IC50 stands for the point on the concentration scale where inhibition reaches its midpoint. What is called solubility is the dissolved amount per volume that the medium holds. In general, Kd refers to a measure of binding affinity in units of concentration. Low readings indicate a tighter complex, high ones a looser complex.

Values taken from ChEMBL document CHEMBL4387763, “Discovery of novel biaryl sulfonamide based Mcl-1 inhibitors” (Bioorg Med Chem Lett, 2019).
